Patent US20180125856A1, “USE OF GLUCOCORTICOID RECEPTOR ANTAGONIST AND SOMATOSTATIN ANALOGUES TO TREAT ACTH-SECRETING TUMORS” (Corcept Therapeutics, Inc., priority 2015, published 2018)

System: human patient with an ectopic ACTH-secreting pancreatic neuroendocrine tumor
Assay: Tolerability in a patient
Type: in vivo
Settings: week 20, octreotide LAR continued
From the text: Mifepristone was resumed for an additional 12-month extension period. […] The collection of cortisol and ACTH data was less frequent during the extension study.

CC#C[C@]1(O)CC[C@H]2[C@@H]3CCC4=CC(=O)CCC4=C3[C@@H](c3ccc(N(C)C)cc3)C[C@@]21C [mifepristone, 17-β-hydrox-11-β-(4-dimethyl-aminophenyl)17-α-(1-propynyl)estra-4,9-dien-3-one]
adverse events for which the drug was briefly stopped: significant fatigue, low appetite, and nausea
